Data from patent publication US12201632B2, “Levoketoconazole for treatment of congenital adrenal hyperplasia and primary aldosteronism” (Strongbridge Dublin Limited, priority 2018, dated 2025).

Tested on: HAC15 cells
Test: Steroid profile by LC/MS-MS in HAC15 cells
Assay type: cell-based, Human
Conditions: 0.5 μM; for 11-DOC absolute change vs ACTH stimulation with vehicle / 11-DOC percentage change vs ACTH stimulation with vehicle / 17-OHP absolute change vs ACTH stimulation with vehicle / 17-OHP percentage change vs ACTH stimulation with vehicle / Androstenedione absolute change vs ACTH stimulation with vehicle / Androstenedione percentage change vs ACTH stimulation with vehicle / Corticosterone absolute change vs ACTH stimulation with vehicle / Corticosterone percentage change vs ACTH stimulation with vehicle / Cortisol absolute change vs ACTH stimulation with vehicle / Cortisol percentage change vs ACTH stimulation with vehicle / DHEA absolute change vs ACTH stimulation with vehicle / DHEA percentage change vs ACTH stimulation with vehicle / DHEAS absolute change vs ACTH stimulation with vehicle / DHEAS percentage change vs ACTH stimulation with vehicle / Prog absolute change vs ACTH stimulation with vehicle / Prog percentage change vs ACTH stimulation with vehicle / Testosterone absolute change vs ACTH stimulation with vehicle / Testosterone percentage change vs ACTH stimulation with vehicle / 11-DOC absolute change vs control / 11-DOC percentage change vs control / 17-OHP absolute change vs control / 17-OHP percentage change vs control / Androstenedione absolute change vs control / Androstenedione percentage change vs control / Corticosterone absolute change vs control / Corticosterone percentage change vs control / Cortisol absolute change vs control / Cortisol percentage change vs control / DHEA absolute change vs control / DHEA percentage change vs control / DHEAS absolute change vs control / DHEAS percentage change vs control / Prog absolute change vs control / Prog percentage change vs control / Testosterone absolute change vs control / Testosterone percentage change vs control: 3 days; for 11-DOC absolute change vs control / 11-DOC percentage change vs control / 17-OHP absolute change vs control / 17-OHP percentage change vs control / Androstenedione absolute change vs control / Androstenedione percentage change vs control / Corticosterone absolute change vs control / Corticosterone percentage change vs control / Cortisol absolute change vs control / Cortisol percentage change vs control / DHEA absolute change vs control / DHEA percentage change vs control / DHEAS absolute change vs control / DHEAS percentage change vs control / Prog absolute change vs control / Prog percentage change vs control / Testosterone absolute change vs control / Testosterone percentage change vs control: HAC15, Basal
Protocol: Human adrenocortical carcinoma HAC15 and mouse corticotroph AtT20 cells were used, purchased as a kind gift by Dr. W. Rainey, and obtained from Dr. J. Tooze (European Organization for Molecular Biology), respectively. Both cell lines were cultured in 75 cm^2 flasks at 37° C. in a humidified incubator (Greiner Bio-One, Alphen a/d Rijn, the Netherlands) at 5% CO2. Dulbecco's Modified Eagle Medium F12 containing 5% fetal calf serum was used for HAC15, whereas AtT20 cells were cultured in Dulbecco's minimal essential medium (DMEM) supplemented with 10% fetal calf serum. Both mediums were supplemented with L-glutamine (2 mmol/L) and penicillin (10^5 U/L). Short tandem repeat (str) profiling using a Powerplex Kit (Promega, Leiden, the Netherlands) of HAC15 and AtT20 gave results consistent with the ATCC database, confirming the identity of both cell lines. Medium and supplements were obtained from Invitrogen, Breda, the Netherlands. Once a week, cells were harvested with trypsin (0.05%)-EDTA (0.53 mM) and resuspended in culture medium. Levoketoconazole (COR-003) and racemic ketoconazole (both from Cortendo AB) were dissolved in absolute ethanol (EtOH), according to manufacturer's instructions, and stored at −20° C. at a stock concentration of […]. At the start of each experiment, both drugs were freshly prepared and diluted in EtOH in the correct concentrations. Synacten (synthetic ACTH, Novartis Pharma A.G.) stock concentration was stored at 4° C. and dissolved in culture medium at the day of use. The final concentrations of ACTH were chosen based on a dose-response curve in HAC15 cells and previously reported studies in the literature. For HAC15, 200,000 and 100,000 cells were plated in 0.5 ml medium in 24 well plates for experiments of 1 and 3 days, respectively. For AtT20, cell amounts were 100,000 and 30,000. One day after seeding the HAC15 cells, the medium was refreshed and cells were treated 1 or 3 days in quadruplicate with levoketoconazole or racemic ketoconazole (0.05-5 μM), with or without 10 nM ACTH. To study effects of both compounds on pituitary AtT20 cells, concentrations of 0.1 to 10 μM of both drugs were used. Controls were vehicle treated. […] Media were collected after 1 or 3 days of incubation and stored at −20° C. until analysis. All cell culture experiments were carried out at least twice.
Cortisol concentrations were measured in the supernatant using a chemiluminescence immunoassay system (Immulite 2000XPi; Siemens DPC Inc., Los Angeles, Calif., USA). In addition, we carried out multi-steroid analysis by liquid chromatography/mass spectrometry (LC/MS-MS) to accurately quantify androstenedione, corticosterone, cortisol, 11-deoxycortisol, DHEA, DHEAS, progesterone, 17-hydroxyprogesterone, and testosterone. Concentrations that were tested on the LC/MS-MS were closest to 50% inhibition or maximal inhibition of cortisol as determined by the immunoassay. Steroids were quantified with respect to a calibration series, with internal standards. Steroids were quantified on a Xevo TQS LC-MS/MS (Waters Chromatography).
Statistical analysis was performed using Graphpad Prism 6.0 (Graphpad Software, San Diego, CA). Non-linear regression curve fitting program was used to calculate the half maximal inhibitory concentrations (IC50) on cortisol production. Effects of both compounds on the steroid profile were measured as absolute change compared to control and compared using the Student's t-test. When assessing differences between effects of both compounds, the percentage change was evaluated and compared in order to correct for differences in the vehicle treated control cells. Values of P<0.05 were considered statistically significant and data are presented as mean SEM.

## CC(=O)N1CCN(c2ccc(OCC3COC(Cn4ccnc4)(c4ccc(Cl)cc4Cl)O3)cc2)CC1 (racemic) [racemic ketoconazole, Ketoconazole]
HAC15, ACTH
  total sum of decrease of steroids: −1,591 nmol/L
  11-DOC absolute change vs ACTH stimulation with vehicle: -664.5 nmol/L
  11-DOC percentage change vs ACTH stimulation with vehicle: (−22%****)
  17-OHP absolute change vs ACTH stimulation with vehicle: -14.13 nmol/L
  17-OHP percentage change vs ACTH stimulation with vehicle: (−29%***)
  Androstenedione absolute change vs ACTH stimulation with vehicle: -661.4 nmol/L
  Androstenedione percentage change vs ACTH stimulation with vehicle: (−40%*)
  Corticosterone absolute change vs ACTH stimulation with vehicle: -0.0125 nmol/L
  Corticosterone percentage change vs ACTH stimulation with vehicle: (−1.5%****)
  Cortisol absolute change vs ACTH stimulation with vehicle: -15.15 nmol/L
  Cortisol percentage change vs ACTH stimulation with vehicle: (−45%****)
  DHEA absolute change vs ACTH stimulation with vehicle: -17.04 nmol/L
  DHEA percentage change vs ACTH stimulation with vehicle: (−41%***)
  DHEAS absolute change vs ACTH stimulation with vehicle: -197.4 nmol/L
  DHEAS percentage change vs ACTH stimulation with vehicle: (−35%)
  Prog absolute change vs ACTH stimulation with vehicle: -0.9625 nmol/L
  Prog percentage change vs ACTH stimulation with vehicle: (−30%****)
  Testosterone absolute change vs ACTH stimulation with vehicle: -20.29 nmol/L
  Testosterone percentage change vs ACTH stimulation with vehicle: (−50%****)
  11-DOC absolute change vs control: -521.2 nmol/L
  11-DOC percentage change vs control: (−23%****)
  17-OHP absolute change vs control: -16.50 nmol/L
  17-OHP percentage change vs control: (−37%****)
  Androstenedione absolute change vs control: -809.0 nmol/L
  Androstenedione percentage change vs control: (−47%**)
  Corticosterone absolute change vs control: +0.1750 nmol/l
  Corticosterone percentage change vs control: (+19%****)
  Cortisol absolute change vs control: -10.93 nmol/L
  Cortisol percentage change vs control: (−47%****)
  DHEA absolute change vs control: -39.50 nmol/L
  DHEA percentage change vs control: (−56%**)
  DHEAS absolute change vs control: -496.4 nmol/L
  DHEAS percentage change vs control: (−44%*)
  Prog absolute change vs control: -0.3125 nmol/L
  Prog percentage change vs control: (−19%****)
  Testosterone absolute change vs control: -25.78 nmol/L
  Testosterone percentage change vs control: (−58%***)
HAC15, basal
  total sum of decrease of steroids: −1,919 nmol/L

## CC(=O)N1CCN(c2ccc(OC[C@@H]3CO[C@@](Cn4ccnc4)(c4ccc(Cl)cc4Cl)O3)cc2)CC1 (relative stereo) [levoketoconazole, 2S,4R cis-1-acetyl-4-[4-[[2-(2,4-dichlorophenyl)-2-(1H-imidazol-1-ylmethyl)-1,3-dioxolan-4-yl]methoxyl]phenyl]piperazine]
HAC15, ACTH
  total sum of decrease of steroids: −2,811 nmol/L
  11-DOC absolute change vs ACTH stimulation with vehicle: -1524 nmol/L
  11-DOC percentage change vs ACTH stimulation with vehicle: −47%
  17-OHP absolute change vs ACTH stimulation with vehicle: -24.73 nmol/L
  17-OHP percentage change vs ACTH stimulation with vehicle: (−47%)
  Androstenedione absolute change vs ACTH stimulation with vehicle: -943.7 nmol/L
  Androstenedione percentage change vs ACTH stimulation with vehicle: (−52%)
  Corticosterone absolute change vs ACTH stimulation with vehicle: -1.063 nmol/L
  Corticosterone percentage change vs ACTH stimulation with vehicle: (−36%)
  Cortisol absolute change vs ACTH stimulation with vehicle: -13.81 nmol/L
  Cortisol percentage change vs ACTH stimulation with vehicle: −31%
  DHEA absolute change vs ACTH stimulation with vehicle: -13.81 nmol/L
  DHEA percentage change vs ACTH stimulation with vehicle: (−31%)
  DHEAS absolute change vs ACTH stimulation with vehicle: -250.1 nmol/L
  DHEAS percentage change vs ACTH stimulation with vehicle: (−43%)
  Prog absolute change vs ACTH stimulation with vehicle: -2.163 nmol/L
  Prog percentage change vs ACTH stimulation with vehicle: (−64%)
  Testosterone absolute change vs ACTH stimulation with vehicle: -30.52 nmol/L
  Testosterone percentage change vs ACTH stimulation with vehicle: (−71%)
HAC15, ACTH, listed as LK
  11-DOC absolute change vs ACTH stimulation with vehicle: -1524 nmol/L
  11-DOC percentage change vs ACTH stimulation with vehicle: (−47%)
  Cortisol absolute change vs ACTH stimulation with vehicle: -21.80 nmol/L
  Cortisol percentage change vs ACTH stimulation with vehicle: (−65%)
  11-DOC absolute change vs control: -1129 nmol/L
  11-DOC percentage change vs control: (−48%)
  17-OHP absolute change vs control: -26.89 nmol/L
  17-OHP percentage change vs control: (−57%)
  Androstenedione absolute change vs control: -1105 nmol/L
  Androstenedione percentage change vs control: (−56%)
  Corticosterone absolute change vs control: -0.2938 nmol/L
  Corticosterone percentage change vs control: (−39%)
  Cortisol absolute change vs control: -16.36 nmol/L
  Cortisol percentage change vs control: (−69%)
  DHEA absolute change vs control: -31.04 nmol/L
  DHEA percentage change vs control: (−44%)
  DHEAS absolute change vs control: -658.6 nmol/L
  DHEAS percentage change vs control: (−56%)
  Prog absolute change vs control: -0.9125 nmol/L
  Prog percentage change vs control: (−55%)
  Testosterone absolute change vs control: -39.19 nmol/L
  Testosterone percentage change vs control: (−64%)
HAC15, basal
  total sum of decrease of steroids: −3,007 nmol/L
